The supplement of paper PMC10307832

Key:
Test in all cases: relative viability (nuclei count vs DMSO), 5 days (fraction); higher = more cells survive
[1] = compound: O=C(C[C@H]1NCCC[C@@H]1O)Cn1cnc2cc(Br)c(Cl)cc2c1=O (racemic) [Halofuginone] + Cc1cc(Nc2cc(N3CCN(C)CC3)nc(Sc3ccc(NC(=O)C4CC4)cc3)n2)n[nH]1 [Tozasertib] (partner 0.1 µM)
Summary of the method: (§1)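 After 5 days of treatment, lung cancer cells in 1536-well plates were fixed and stained in a single step (final 0.05% Triton X-100, 1% formaldehyde, 1 ug/ml Hoechst) and their nuclei counted on 4× images. Treatment had been applied by pin tool the day after seeding as one drug alone or as a fixed anchor-drug dose with five library-drug doses (not always all listed) in √10 steps. Relative viability is the nuclei count of treated wells divided by that of vehicle wells, and values are medians of duplicate plates.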

[2] = compound: Nc1ncn([C@H]2C[C@H](O)[C@@H](CO)O2)c(=O)n1 [Decitabine] + COc1cccc2cc(-c3nc([C@H]4CC[C@H](C(=O)O)CC4)n4ncnc(N)c34)[nH]c12 [OSI-027] (partner 0.5 µM)
Summary of the method: as §1

[3] = compound: O=C(C[C@H]1NCCC[C@@H]1O)Cn1cnc2cc(Br)c(Cl)cc2c1=O (racemic) [Halofuginone] + CC(=O)Nc1cccc(-n2c(=O)n(C3CC3)c(=O)c3c(Nc4ccc(I)cc4F)n(C)c(=O)c(C)c32)c1 [Trametinib] (partner 0.02 µM)
Summary of the method: as §1

[4] = compound: COc1cc2c(Oc3ccc4[nH]c(C)cc4c3F)ncnc2cc1OCCCN1CCCC1 [Cediranib] + CC(=O)Nc1cccc(-n2c(=O)n(C3CC3)c(=O)c3c(Nc4ccc(I)cc4F)n(C)c(=O)c(C)c32)c1 [Trametinib] (partner 0.02 µM)
Summary of the method: as §1

UMC-11
relative viability ([1]; first compound 0.001 µM): 0.219
relative viability ([1]; first compound 0.003162 µM): 0.196
relative viability ([1]; first compound 0.01 µM): 0.189
relative viability ([1]; first compound 0.03162 µM): 0.205
relative viability ([1]; first compound 0.1 µM): 0.209
relative viability ([2]; first compound 0.04 µM): 0.46
relative viability ([2]; first compound 0.1265 µM): 0.0004
relative viability ([2]; first compound 0.4 µM): 0.411
relative viability ([2]; first compound 1.265 µM): 0.316
relative viability ([2]; first compound 4 µM): 0.363
relative viability ([3]; first compound 0.001 µM): 0.8
relative viability ([3]; first compound 0.003162 µM): 0.791
relative viability ([3]; first compound 0.01 µM): 0.782
relative viability ([3]; first compound 0.03162 µM): 0.603
relative viability ([3]; first compound 0.1 µM): 0.456
relative viability ([4]; first compound 0.04 µM): 0.684
relative viability ([4]; first compound 0.1265 µM): 0.234
relative viability ([4]; first compound 0.4 µM): 0.586
relative viability ([4]; first compound 1.265 µM): 0.394
relative viability ([4]; first compound 4 µM): 0.721
